From PubChem BioAssay AID248 (DTP/NCI, 2004)
Values joined by “and” are separate entries in the source; they are usually repeats but may differ in a detail not shown here. Equal entries are not always repeated. Toxic doses and inconclusive results are not listed.

Tested on: L1210 leukemia ip in BDF1 mice, survival T/C
Experiment: NCI In Vivo Anticancer Drug Screen. Data for tumor model L1210 Leukemia (intraperitoneal) in B6D2F1 (BDF1) mice
Conditions: endpoint: mean survival time, higher = longer survival
Procedure, shortened: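 Tumor was transplanted into mice, which were then dosed with test compound or vehicle alone. Survival was recorded for each group, and the treated figure was expressed relative to the control figure.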

[1] = dose: 100.0 mg/kg/injection, schedule: Q01DX001 (ip), vehicle: saline

**Q.** `CCCCCCCNC(C)(C)C(SS)c1ccc(Cl)cc1` (stereo not given) was tested. Which T/C (dose: 100.0 mg/kg/injection, schedule: Q01DX009 (sc), vehicle: olive oil, sesame oil, peanut oil) did it give?
**A.** 102 % of control

**Q.** And the T/C (dose: 200.0 mg/kg/injection, schedule: Q01DX009 (sc), vehicle: olive oil, sesame oil, peanut oil)?
**A.** 100 % of control

**Q.** What about the T/C (dose: 400.0 mg/kg/injection, schedule: Q01DX009 (sc), vehicle: olive oil, sesame oil, peanut oil) of the same compound?
**A.** 101 % of control

**Q.** `CSc1nn(C)c[n+]1-c1ccccc1` was tested. Which T/C [1] did it give?
**A.** 105 % of control

**Q.** With `O=C(C=C(C(F)(F)F)C(F)(F)F)/C=C/c1ccccc1` as the compound, how does the T/C (dose: 1.0 mg/kg/injection, schedule: Q01DX009 (ip), vehicle: other) read?
**A.** 97 % of control

**Q.** And the T/C (dose: 2.0 mg/kg/injection, schedule: Q01DX009 (ip), vehicle: other)?
**A.** 109 % of control

**Q.** What about the T/C (dose: 2.5 mg/kg/injection, schedule: Q04DX003 (ip), vehicle: other) of the same compound?
**A.** 97 % of control

**Q.** And the T/C (dose: 3.13 mg/kg/injection, schedule: Q01DX009 (ip), vehicle: other)?
**A.** 102 % of control

**Q.** What about the T/C (dose: 4.0 mg/kg/injection, schedule: Q01DX009 (ip), vehicle: other) of the same compound?
**A.** 97 % of control

**Q.** What about the T/C (dose: 5.0 mg/kg/injection, schedule: Q04DX003 (ip), vehicle: other) of the same compound?
**A.** 97 % of control

**Q.** And the T/C (dose: 10.0 mg/kg/injection, schedule: Q04DX003 (ip), vehicle: other)?
**A.** 92 % of control

**Q.** And the T/C (dose: 12.5 mg/kg/injection, schedule: Q04DX003 (ip), vehicle: other)?
**A.** 88 % of control

**Q.** `N=C(N)S/C=C/CSC(=N)N` was tested. Which T/C (dose: 10.0 mg/kg/injection, schedule: Q01DX001 (ip), vehicle: saline) did it give?
**A.** 90 % of control

**Q.** What about the T/C (dose: 20.0 mg/kg/injection, schedule: Q01DX001 (ip), vehicle: saline) of the same compound?
**A.** 95 % of control

**Q.** And the T/C (dose: 40.0 mg/kg/injection, schedule: Q01DX001 (ip), vehicle: saline)?
**A.** 95 % of control

**Q.** And the T/C (dose: 80.0 mg/kg/injection, schedule: Q01DX001 (ip), vehicle: saline)?
**A.** 97 % of control

**Q.** Which results are given for `CCC(/C=N/NC(N)=O)c1ccccc1OC` (stereo not given)?
**A.** T/C [1]: 96 % of control; T/C (dose: 200.0 mg/kg/injection, schedule: Q01DX001 (ip), vehicle: saline): 104 % of control; T/C (dose: 400.0 mg/kg/injection, schedule: Q01DX001 (ip), vehicle: saline): 109 % of control

**Q.** How did the T/C (dose: 100.0 mg/kg/injection, schedule: Q01DX001 (ip), vehicle: saline with Tween-80) turn out when `CC1=C(C)C(=O)C(SC2CC(=O)OC2=O)=C(C)C1=O` (stereo not given) was run?
**A.** 88 % of control

**Q.** Which results are given for `CCCCCCCCCCOP(=S)(N1CC1)N1CC1`?
**A.** T/C (dose: 2.5 mg/kg/injection, schedule: Q01DX Z (ip), vehicle: carboxymethylcellulose (CMC)): 107 % of control; T/C (dose: 5.0 mg/kg/injection, schedule: Q01DX Z (ip), vehicle: carboxymethylcellulose (CMC)): 118 % of control; T/C (dose: 20.0 mg/kg/injection, schedule: Q01DX Z (ip), vehicle: carboxymethylcellulose (CMC)): 232 % of control and 260 % of control; T/C (dose: 40.0 mg/kg/injection, schedule: Q01DX Z (ip), vehicle: carboxymethylcellulose (CMC)): 150 % of control

**Q.** How did the T/C (dose: 18.0 mg/kg/injection, schedule: Q01DX Z (ip), vehicle: methylcellulose (MC)) turn out when `OC1OC(CN(CCCl)c2ccccc2)C(O)C(O)C1O` (stereo not given) was run?
**A.** 109 % of control

**Q.** And the T/C (dose: 27.0 mg/kg/injection, schedule: Q01DX Z (ip), vehicle: methylcellulose (MC))?
**A.** 117 % of control

**Q.** And the T/C (dose: 60.0 mg/kg/injection, schedule: Q01DX Z (ip), vehicle: methylcellulose (MC))?
**A.** 117 % of control

**Q.** With `COC(=O)C(=C/C=C/c1cc(O)c(O)c(O)c1)C(=O)OC` as the compound, how does the T/C (dose: 50.0 mg/kg/injection, schedule: Q01DX001 (ip), vehicle: other) read?
**A.** 104 % of control

**Q.** And the T/C (dose: 100.0 mg/kg/injection, schedule: Q01DX001 (ip), vehicle: other)?
**A.** 98 % of control

**Q.** And the T/C (dose: 200.0 mg/kg/injection, schedule: Q01DX001 (ip), vehicle: other)?
**A.** 95 % of control

**Q.** Which results are given for `COC(=O)CCCCCCCCC(C)c1ccc(C(C)=O)cc1` (stereo not given)?
**A.** T/C (dose: 100.0 mg/kg/injection, schedule: Q01DX009 (ip), vehicle: saline with Tween-80): 95 % of control; T/C (dose: 100.0 mg/kg/injection, schedule: Q04DX003 (ip), vehicle: saline with Tween-80): 99 % of control; T/C (dose: 200.0 mg/kg/injection, schedule: Q01DX009 (ip), vehicle: saline with Tween-80): 87 % of control; T/C (dose: 200.0 mg/kg/injection, schedule: Q04DX003 (ip), vehicle: saline with Tween-80): 95 % of control; T/C (dose: 400.0 mg/kg/injection, schedule: Q01DX009 (ip), vehicle: saline with Tween-80): 96 % of control; T/C (dose: 400.0 mg/kg/injection, schedule: Q04DX003 (ip), vehicle: saline with Tween-80): 89 % of control

**Q.** With `C/C(=N\N=C(/C)c1ccccc1O)c1ccccc1O` as the compound, how does the T/C (dose: 100.0 mg/kg/injection, schedule: Q04DX002 (ip), vehicle: gum acacia) read?
**A.** 96 % of control

**Q.** And the T/C (dose: 200.0 mg/kg/injection, schedule: Q04DX002 (ip), vehicle: gum acacia)?
**A.** 93 % of control

**Q.** And the T/C (dose: 400.0 mg/kg/injection, schedule: Q04DX002 (ip), vehicle: gum acacia)?
**A.** 101 % of control

**Q.** With `CCCCCCCCSC(=S)S.[Fe]` as the compound, how does the T/C (dose: 100.0 mg/kg/injection, schedule: Q04DX002 (ip), vehicle: Klucel (hydroxypropylcellulose) (HPC)) read?
**A.** 88 % of control

**Q.** And the T/C (dose: 200.0 mg/kg/injection, schedule: Q04DX002 (ip), vehicle: Klucel (hydroxypropylcellulose) (HPC))?
**A.** 95 % of control

**Q.** What about the T/C (dose: 400.0 mg/kg/injection, schedule: Q04DX002 (ip), vehicle: Klucel (hydroxypropylcellulose) (HPC)) of the same compound?
**A.** 91 % of control

**Q.** How did the T/C (dose: 100.0 mg/kg/injection, schedule: Q04DX003 (ip), vehicle: saline sonified) turn out when `CCOC(Cn1ccc(=O)[nH]c1=O)OCC` was run?
**A.** 109 % of control

**Q.** What about the T/C (dose: 200.0 mg/kg/injection, schedule: Q04DX003 (ip), vehicle: saline sonified) of the same compound?
**A.** 96 % of control

**Q.** What about the T/C (dose: 400.0 mg/kg/injection, schedule: Q04DX003 (ip), vehicle: saline sonified) of the same compound?
**A.** 105 % of control
